Reference: patent US7589077B2, “Antiviral nucleosides” (priority 2001, dated 2009)
≈ marks a conversion by molar mass, not a printed value. Read-outs that look alike come from different tables or passages of the source.

Columns and labels:
[1] = tested on: VZV (Ellen); experiment: CPE inhibition assay VZV (Ellen) in HFF cells; assay type: cell-based, varicella zoster virus; settings: for EC50: Human alphaherpesvirus 3, HFF
Protocol: (§1) Cytopathic effect (CPE) inhibition assays for HSV-1, HSV-2, HCMV and VZV were performed as follows: Low passage human foreskin fibroblasts (HFF) cells were seeded into 96 well tissue culture plates 24 h prior to use at a cell concentration of 2.5×10^4 cells per mL in 0.1 mL of minimal essential medium (MEM) supplemented with 10% fetal bovine serum (FBS). The cells were then incubated for 24 h at 37° C. in a CO2 incubator. After incubation, the medium was removed and 100 μL of MEM containing 2% FBS was added to all but the first row. In the first row, 125 μL of experimental drug was added in triplicate wells. Medium alone was added to both cell and virus control […]. After incubation, the medium was removed and 100 μl of MEM containing 2% FBS was added to all but the first row. Medium alone was added to both cell and virus control wells. 125 μl of Experimental drug was added in triplicate wells. The drug in the first row of wells was then diluted serially 1:5 throughout the remaining wells by transferring 25 μL using the Cetus Liquid Handling Machine. After dilution of drugs, 100 μL of the appropriate virus concentration was added to each well, excluding the cell control wells which received 100 μL of MEM. For HSY-1 and HSV-2 assays, the virus concentration utilized was 1000 PFU's per well. For CMV and VZV assays, the virus concentration added was 2500 PFU's per well. The plates were then incubated at 37° C. in a CO2 incubator for 3 days for HSV-1 and HSV-2, 10 days for VZV, or 14 days for CMV. After the incubation period, media was aspirated and the cells stained with a 0.1% crystal violet solution for 30 min. The stain was then removed and the plates were allowed to dry 24 h and then read on a Skatron Plate Reader at 620 nm.

[2] = Cell cytotoxicity in Vero cells; assay type: cell-based; settings: African green monkey, Vero cells
Protocol: (§2) The compounds were assayed for a) their ability to inhibit DHBV DNA replication in duck hepatocytes, b) their ability to inhibit HBV DNA replication in HepG2 2.2.15 cells, c) the cell cytotoxicity in Vero cells, the cell viability in HFF cells, d) the cell proliferation in HFF cells, and e) the T cell proliferation (purified T cells, PHA stimulated). 3-TC was used as a control.

[3] = tested on: HSV-1 (E-377); experiment: CPE inhibition assay HSV-1 (E-377) in HFF cells; assay type: cell-based, Herpes simplex virus type-1; settings: for EC50: Human alphaherpesvirus 1, HFF
Protocol: as §1

[4] = tested on: HSV-2 (MS); experiment: CPE inhibition assay HSV-2 (MS) in HFF cells; assay type: cell-based, Herpes simplex virus type-2; settings: for EC50: Human alphaherpesvirus 2, HFF
Protocol: as §1

[5] = tested on: duck hepatitis B virus (DHBV); experiment: DHBV DNA replication in primary duck hepatocytes (dot blot hybridization); assay type: cell-based; settings: for inhibition at 10 µg/mL: read-out: % Inh. of DHBV DNA in duck hepatocytes @ 10 μg/ml
Protocol: A series of compounds were synthesized and assayed for activity against duck hepatitis B virus (DHBV). […] Test compounds were added to the hepatocyte cultures on day 2 and maintained in culture with media changed every second day until day 12. Cell were harvested at day 14 and lysed with buffer containing 1% SDS. DNA was isolated from the lysate and dot blot hybridization was performed using a DHBV (32P) DNA probe. […]
as §2

[6] = tested on: human HBV; experiment: HBV DNA replication in HepG2 2.2.15 cells; assay type: cell-based, hepatitis B virus; settings: for EC50: Table 3a, read-out: % Inhibition of human HBV DNA replication in HepG2 2.2.15 cells EC50
Protocol: The compounds were assayed for a) their ability to inhibit DHBV DNA replication in duck hepatocytes, b) their ability to inhibit HBV DNA replication in HepG2 2.2.15 cells, c) the cell cytotoxicity in Vero cells, the cell viability in HFF cells, d) the cell proliferation in HFF cells, and e) the T cell proliferation (purified T cells, PHA stimulated). 3-TC was used as a control. Additional compounds described below in the Preparative Examples section were also tested, and the results are shown in Tables 2-4 below. The reference numbers for the compounds are found in the Preparative Examples.

[7] = tested on: HCMV (AD169); experiment: CPE inhibition assay HCMV (AD169) in HFF cells; assay type: cell-based, human cytomegalovirus; settings: for EC50: Human betaherpesvirus 5, AD169, HFF
Protocol: as §1

[8] = tested on: Epstein-Barr Virus (EBV); experiment: EBV immunofluorescence assay in DAUDI cells (P3HR-1 strain); assay type: cell-based; settings: for EBV EC50: Table 4; for EC90: human gammaherpesvirus 4
Protocol: The immunofluorescence assay, using monoclonal antibodies, for Epstein-Barr Virus (EBV) was performed as follows: DAUDI cells were infected with the P3HR-1 strain of EBV and the test drug was added after adsorption (45 min. at 37° C.) and washing of the cell cultures. These cultures were then incubated for 2 days in complete medium to allow viral gene expression. Following the 48 h incubation period, the number of cells in each sample were counted and smears were made. Monoclonal antibodies to the different early antigen (EA) components and VCA were than added to the cells, incubated and washed. This was followed by the addition of a fluorescein conjugated rabbit anti mouse Ig antibodies. The number of fluorescence positive cells in the smears were counted and the total number of cells in the cultures positive for EA or VCA were then calculated and compared.

[9] = tested on: HSV-1 (KOSSB) HSV-TK−; experiment: microbe, parasite or virus in culture; assay type: cell-based, Herpes simplex virus type-1; settings: for HSV-1 (KOSSB) HSV-TK− EC50: Table 4
Protocol: as §1, with “The” for “Cytopathic effect (CPE) inhibition assays for HSV-1, HSV-2, HCMV and VZV were performed as follows: Low passage human foreskin fibroblasts (HFF) cells were seeded into 96 well tissue culture plates 24 h prior to use at a cell concentration of 2.5×10^4 cells per mL in 0.1 mL of minimal essential medium (MEM) supplemented with 10% fetal bovine serum (FBS). The”

[10] = tested on: HSV-1 (KOS) HSV-TK+; experiment: HSV-1 (KOS) HSV-TK+ antiviral assay; assay type: cell-based, Herpes simplex virus type-1; settings: Table 4
Protocol: as §1

[11] = Duck hepatitis B virus, Hepatocyte
[12] = Duck hepatitis B virus, Hepatocyte, Table 2, value in brackets, read-out: DHBV DNA in duck hepatocytes [EC50, μg/ml]

[N-]=[N+]=NC1C(Cl)C(=O)NC(=O)N1[C@H]1C[C@H](O)[C@@H](CO)O1 (stereo partly shown) [RB-10, 5-Chloro-6-azido-5,6-dihydro-2′-deoxyuridine]
EC50 ([1]; Table 3b): 9.8 µM
CC50 ([2]; Table 3b): > 327 µM
EC50 ([3]; Table 3b): 0.33 µM
EC50 ([4]; Table 3b): 1.6 µM

[(+)(6R)]-5-bromo-6-ethoxy-5,6dihydro-3′-fluoro-2′,3′-dideoxyuridine [RB-5]
% Inhibition of DHBV DNA in duck hepatocytes EC50 μM ([5]; Table 3a): not active
EC50 [6]: 5 µM

(5R,6R) 5-fluoro-O^6-5′-cyclo-5,6-dihydro-2′-deoxythymidine [Compound R-25]
HCMV (AD-169) EC50 ([7]; Table 4): >100 µg/mL
EBV EC50 [8]: 0.6 to 3.0 µg/mL
HSV-1 (KOSSB) HSV-TK− EC50 [9]: >50 µg/mL
VZV (Ellen) EC50 ([1]; Table 4): >100 µg/mL
HSV-1 (E-377) EC50, μg/ml ([3]; Table 4): >100 μg/ml
HSV-2 (MS) EC50 ([4]; Table 4): >100 µg/mL
HSV-1 (KOS) HSV-TK+ EC50 [10]: >25 µg/mL

C=Cc1cn(COC(CO)CO)c(=O)[nH]c1=O [Compound 9a, 1-[(2-Hydroxy-1-(hydroxymethyl)ethoxy)methyl]-5-vinyluracil]
CC50 ([2]; Table 2): > 100 µg/mL
inhibition at 10 µg/mL [5, 11]: 82%
EC50 [5, 12]: 0.3 to 1 µg/mL

O=c1[nH]c(=O)n(CCC(CO)CO)cc1I [Compound 19, 1-[4-Hydroxy-3-(hydroxymethyl)-1-butyl]-5-iodouracil]
CC50 ([2]; Table 2): > 200 µg/mL
inhibition at 10 µg/mL [5, 11]: 65.2%
inhibition at 0.01 µg/mL ([6]; Hepatitis B virus, HepG2 2.2.15, read-out: % Inh. of human HBV DNA replication in HepG2 2.2.15 cells @ 0.01 μg/ml (right)): 18.1%
inhibition at 0.1 µg/mL ([6]; Hepatitis B virus, HepG2 2.2.15, read-out: % Inh. of human HBV DNA replication in HepG2 2.2.15 cells @ 0.1 μg/ml (left)): 69.1%

(5S,6R) 5-fluoro-O^6-5′-cyclo-5,6-dihydro-2′-deoxythymidine [Compound R-23]
HCMV (AD-169) EC50 ([7]; Table 4): >100 µg/mL
EBV EC50 [8]: 0.1 to 1.4 µg/mL
EBV EC90 ([8]; Table 4, in parentheses): (EC90 = 7.3) μg/ml
HSV-1 (KOSSB) HSV-TK− EC50 [9]: >50 µg/mL
VZV (Ellen) EC50 ([1]; Table 4): >100 µg/mL
HSV-1 (E-377) EC50, μg/ml ([3]; Table 4): >100 μg/ml
HSV-2 (MS) EC50 ([4]; Table 4): >100 µg/mL
HSV-1 (KOS) HSV-TK+ EC50 [10]: >25 µg/mL

Nc1nc(O)c2ncn(COC(CO)CO)c2n1 [Gancyclovir, ganciclovir, reference compound]
EC50 ([7]; Table 2): 0.06 µg/mL (≈ 0.235 µM)
EC50 ([7]; Table 4, read-out: HCMV (AD-169) EC50): 0.1 µg/mL (≈ 0.392 µM)
EC50 ([1]; Table 4): 0.1 µg/mL

[(−)-(6S)]-5-bromo-6-ethoxy-5,6-dihydro-3′-fluoro-2′,3′-dideoxyuridine [RB-4]
EC50 ([5]; Table 3a, read-out: % Inhibition of DHBV DNA in duck hepatocytes EC50): > 10 µM
EC50 [6]: 3 µM

Nc1nc2c(ncn2COCCO)c(=O)[nH]1 [Acyclovir, acyclovir, reference compound]
EBV EC90 ([8]; Table 4, in parentheses): > 50 µg/mL
EBV EC90 ([8]; Table 5, in parentheses): (EC90 = >50) μg/ml
EC50 ([8]; human gammaherpesvirus 4, Table 3a, read-out: EBV EC50): 1 µg/mL (≈ 4.44 µM)
EC50 ([8]; human gammaherpesvirus 4, Table 4, read-out: EBV EC50): 1.4 µg/mL (≈ 6.22 µM)
EC50 ([8]; human gammaherpesvirus 4, Table 5, read-out: EBV EC50): 1 µg/mL (≈ 4.44 µM)
EC50 ([8]; human gammaherpesvirus 4, running text, read-out: anti EBV activity EC50): 1 µg/mL (≈ 4.44 µM)
EC90 ([8]; Table 3a, in parentheses, read-out: EBV EC90): > 50 µg/mL
EC90 ([8]; read-out: anti EBV activity EC90): > 50 µg/mL
EC50 ([9]; Human alphaherpesvirus 1, read-out: HSV-1 (KOSSB) HSV-TK− EC50, μg/ml): > 100 µg/mL
EC50 ([1]; Table 2): 0.6 µg/mL
EC50 ([1]; Table 3a): 0.03 µg/mL
EC50 ([1]; Table 3b): 3.96 µM
EC50 ([1]; Table 4): 0.08 µg/mL
CC50 ([2]; Table 3b): > 400 µM
EC50 ([3]; Table 3b): 3.08 µM
EC50 ([3]; Table 4): 0.2 µg/mL
EC50 ([4]; Table 3b): 6.16 µM
EC50 ([4]; Table 4): 0.6 µg/mL
EC50 ([10]; Human alphaherpesvirus 1): < 1 µg/mL

C=Cc1cn(CCC(CO)CO)c(=O)[nH]c1=O [Compound 20, 1-[4-Hydroxy-3-(hydroxymethyl)-1-butyl]-5-vinyluracil]
CC50 ([2]; Table 2): > 100 µg/mL
inhibition at 10 µg/mL [5, 11]: 80%
EC50 [5, 12]: 1 to 3 µg/mL

(5R,6S) 5-fluoro-O^6-5′-cyclo-5,6-dihydro-2′-deoxythymidine [Compound R-24]
HCMV (AD-169) EC50 ([7]; Table 4): >100 µg/mL
EBV EC50 [8]: 0.6 to 2.8 µg/mL
EBV EC90 ([8]; Table 4, in parentheses): (EC90 = 3.8) μg/ml
HSV-1 (KOSSB) HSV-TK− EC50 [9]: >50 µg/mL
VZV (Ellen) EC50 ([1]; Table 4): >100 µg/mL
HSV-1 (E-377) EC50, μg/ml ([3]; Table 4): >100 μg/ml
HSV-2 (MS) EC50 ([4]; Table 4): >100 µg/mL
HSV-1 (KOS) HSV-TK+ EC50 [10]: >25 µg/mL

(5S,6S)5-Bromo-O^6-5′-cyclo-5,6-dihydro-5-ethyl-2′-deoxyuridine [Compound R-9]
HSV-1 (KOSSB) HSV-TK− EC50 [9]: 10 to 25 µg/mL
HSV-1 (E-377) EC50, μg/ml ([3]; Table 4): 4.0 μg/ml
HSV-2 (MS) EC50 ([4]; Table 4): 10 µg/mL
HSV-1 (KOS) HSV-TK+ EC50 [10]: 1 to 5 µg/mL
